Values of other authors as cited in US20150313913A1, “POSITIVE ALLOSTERIC MODULATORS OF THE GABA-A RECEPTOR IN THE TREATMENT OF AUTISM” (UNIVERSITY OF WASHINGTON THROUGH ITS CENTER FOR …, priority 2013, published 2015).
Where two headings read alike, the source gives them in different places.

How the values were obtained:
GABA-A receptor = conditions: cited from earlier work; for Effect at GABA-A receptor: Table 1, exemplary benzodiazepines
[1] = Table 4; cited from earlier work
[2] = Table 4, exemplary non-BDZ GABA-A enhancers

Row | Structure (SMILES) | Effect at GABA-A receptor (GABA-A receptor) | other results
1 | COCc1c(C(=O)OC(C)C)ncc2[nH]c3ccc(OCc4ccccc4)cc3c12 [Abecarnil] |  | Effect at GABA receptor (GABA-A receptor; [2]): Partial agonist
2 | CN(C)Cc1nnc2n1-c1ccc(Cl)cc1C(c1ccccc1)=NC2 [Adinazolam] | Full agonist | 
3 | CCCc1c(Cn2ccnc2-c2ncccc2F)ncn2nc(C)nc12 [Adipiplon] |  | Effect at GABA receptor (GABA-A receptor; Table 2, exemplary SS-PAMs): Partial agonist α3 selective
4 | CCCN(CCC)C(=O)Cc1c(-c2ccc(Cl)cc2)nc2ccc(Cl)cn12 [Alpidem] |  | Effect at GABA receptor (GABA-A receptor; Table 2, exemplary SS-PAMs): Agonist α3 subtype selective
5 | CCOC(=O)N1CCC(=O)N(c2ccccc2)c2cc(Cl)ccc21 [Arfendazam] | Partial agonist | 
6 | O=c1c2cnc3ccccc3c2[nH]n1-c1ccccc1 [CGS-8216] |  | Effect at GABA receptor (GABA-A receptor; [2]): Agonist
7 | O=c1c2cnc3ccccc3c2[nH]n1-c1ccc(Cl)cc1 [CGS-9896] |  | Effect at GABA receptor (GABA-A receptor; [2]): Agonist
8 | O=c1nc2ccccc2c2nc(-c3ccccc3)[nH]n12 [CGS-13767] |  | Effect at GABA receptor (GABA-A receptor; [2]): Agonist
9 | COc1ccc(-n2[nH]c3c4c(ncc3c2=O)CCCCC4)cc1 [CGS-20625] |  | Effect at GABA receptor (GABA-A receptor; [2]): Agonist
10 | Clc1ccccc1C1=NCc2nnc(C3CCCCC3)n2-c2sc(Br)cc21 [Ciclotizolam] | Partial Agonist Low efficacy | 
11 | CN1C(=O)CN2CCc3ccccc3C2c2cc(Cl)ccc21 (centres unmarked) [Clazolam] | Agonist | 
12 | Cc1ncc2n1-c1ccc(Cl)cc1C(c1ccccc1Cl)=NC2 [Climazolam] | Agonist | 
13 | [O-][N+]1=C(c2ccccc2)c2cc(Cl)ccc2N=C(NCC2CC2)C1 [Cyprazepam] | Agonist | 
14 | CCc1c(OC)nc2nc(C(=O)c3ccccc3)cn2c1C [Divaplon] |  | Effect at GABA receptor (GABA-A receptor; [2]): Partial agonist
15 | O=C1C(O)N=C(c2ccccc2F)c2cc(Cl)ccc2N1CCO (centres unmarked) [Doxefazepam] | Agonist | 
16 | O=C1N=C(N2CCCCC2)CN1c1ccc(Cl)cc1 [ELB-139] |  | Effect at GABA receptor (GABA-A receptor; Table 2, exemplary SS-PAMs): Partial agonist Highest affinity for α3 subtype but highest efficacy at the α1 and α2 subunits
17 | CCS(=O)(=O)CCN1C(=O)CN=C(c2ccccc2F)c2cc(Cl)ccc21 [Elfazepam] | Agonist | 
18 | CCOC(=O)C1N=C(c2ccccc2F)c2cc(Cl)ccc2N(C(=O)NC)C1=O (centres unmarked) [Ethyl carfluzepate] | Agonist | 
19 | CCOC(=O)C1N=C(c2ccccc2Cl)c2cc(Cl)ccc2NC1=O (centres unmarked) [Ethyl dirazepate] | Agonist | 
20 | CCc1c(OC)nc2nc(-c3noc(C)n3)cn2c1C [Fasiplon] |  | Effect at GABA receptor (GABA-A receptor; [2]): Agonist
21 | Fc1ccccc1C1=NCCN(CC(F)(F)F)c2ccc(Cl)cc21 [Fletazepam] | Agonist | 
22 | CN1C(=O)CN=C(c2ccccc2F)c2cc(Cl)ccc21 [Fludiazepam] | Agonist | 
23 | O=C1CN2CCOC2(c2ccccc2F)c2cc(Cl)ccc2N1CCO (centres unmarked) [Flutazolam] | Agonist | 
24 | CN1C(=O)C(O)N=C(c2ccccc2F)c2cc(Cl)ccc21 (centres unmarked) [Flutemazepam] | Agonist | 
25 | COc1c(-c2ccc(N)cc2)nc2ccc(NCc3cccc(C)c3)nn12 [GBLD-345] |  | Effect at GABA receptor (GABA-A receptor; [2]): Full agonist
26 | COCc1c(C(=O)OC(C)C)ncc2[nH]c3cccc(Cc4ccc(Cl)cc4)c3c12 [Gedocarnil] |  | Effect at GABA receptor (GABA-A receptor; [2]): Agonist

Row | Structure (SMILES) | Effect at GABA-A receptor (GABA-A receptor) | other results
27 | NNC(=O)CN1C(=O)CN=C(c2ccccc2)c2cc(Br)ccc21 [Gidazepam] | Agonist (Prodrug) | 
28 | COc1cc2c(cc1OC)C(c1cccc(Cl)c1)=NN=C(C)C2 [Girisopam] | Agonist | 
29 | O=C1CN2CCOC2(c2ccccc2F)c2cc(Br)ccc2N1 (centres unmarked) [Haloxazolam] | Agonist | 
30 | O=C1CN=C(c2ccccc2)c2cc(Cl)ccc2N1CCOCC1CC1 [Iclazepam] | Agonist | 
31 | NC(=O)c1ncn2c1CN=C(c1ccccc1Br)c1cc(F)ccc1-2 [Imidazenil] | Partial agonist | 
32 | O=C1CCNc2ccc(Cl)cc2N1c1ccccc1 [Lofendazam] | Agonist | 
33 | O=C1Nc2ccc(Cl)nc2C(c2ccccc2Cl)=NC1O (centres unmarked) [Lopirazepam] | Agonist Short- acting | 
34 | CC(=O)N(C)c1cc(-c2ccnc3c(C(=O)c4cccs4)cnn23)ccc1F [Lorediplon] |  | Effect at GABA receptor (GABA-A receptor; [2]): Agonist
35 | C[C@@H]1N=C(c2ccccc2Cl)c2cc([N+](=O)[O-])ccc2NC1=O [Meclonazepam] | Agonist | 
36 | CN1C(=O)CN=C(C2=CCCCC2)c2cc([N+](=O)[O-])ccc21 [Menitrazepam] | Agonist | 
37 | COCC1CN=C(c2ccccc2Cl)c2cc(Br)ccc2N1C (centres unmarked) [Metaclazepam] | Agonist | 
38 | CC1COC2(c3ccccc3Cl)c3cc(Cl)ccc3NC(=O)CN12 (centres unmarked) [Mexazolam] | Agonist | 
39 | c1cc(-n2ccnc2)cc(-n2cnc3cc(-c4ccoc4)ccc32)c1 [NS-2664] |  | Effect at GABA receptor (GABA-A receptor; Table 2, exemplary SS-PAMs): Partial agonist α2,3 subtype selective
40 | CCO/N=C(\C)c1ccc2c(c1)ncn2-c1cccc(-c2cccnc2)c1 [NS-2710] |  | Effect at GABA receptor (GABA-A receptor; Table 2, exemplary SS-PAMs): Partial agonist α2,3 subtype selective
41 | CC(C)(O)c1ccc2c(c1)ncn2-c1cccc(-c2ccccc2C#N)c1 [NS-11394] |  | Effect at GABA receptor (GABA-A receptor; Table 2, exemplary SS-PAMs): Agonist α3,5 subtype selective
42 | CCc1ccc(-c2nc3ccc(C)cn3c2CN(C)C(=O)CC(C)C)cc1 [Necopidem] |  | Effect at GABA receptor (GABA-A receptor; [2]): Agonist
43 | COc1cc2c(cc1OC)C(c1ccc(N)cc1)=NN=C(C)C2 [Nerisopam] | Agonist | 
44 | O=C(O)C1N=C(c2ccccc2)c2cc([N+](=O)[O-])ccc2NC1=O (centres unmarked) [Nitrazepate] | Agonist | 
45 | O=C(c1ccccn1)c1cnn2c(-c3ccncc3)ccnc12 [Ocinaplon] |  | Effect at GABA receptor (GABA-A receptor; [2]): Agonist
46 | CC1CN2CC(=O)Nc3ccc(Cl)cc3C2(c2ccccc2)O1 (centres unmarked) [Oxazolam] | Agonist | 
47 | CC(C)CCC(=O)CC1c2ccccc2C(=O)N1c1ccc2ccc(Cl)nc2n1 (centres unmarked) [Pagoclone] |  | Effect at GABA receptor (GABA-A receptor; Table 2, exemplary SS-PAMs): Partial agonist α2,3 selective
48 | CC(C)n1c(=O)c2c(-c3noc(C4CC4)n3)ncn2c2ccccc21 [Panadiplon] |  | Effect at GABA receptor (GABA-A receptor; [2]): Partial agonist
49 | c1ccc(-c2cc(CCC3CCNCC3)c3ccccc3n2)cc1 [Pipequaline] |  | Effect at GABA receptor (GABA-A receptor; [2]): Partial agonist
50 | CC(C)(C)C(=O)OC1N=C(c2ccccc2)c2cc(Cl)ccc2NC1=O (centres unmarked) [Pivoxazepam] | Agonist | 
51 | O=C1CN=C(c2ccccc2F)c2cc(Cl)ccc2N1CC(O)CO (centres unmarked) [Proflazepam] | Agonist | 
52 | Cc1ccc(S(=O)(=O)N2CCc3ccccc3[C@@H]2[C@@H]2CCC(=O)O2)cc1 [ROD-188] |  | Effect at GABA receptor (GABA-A receptor; [2]): Agonist

Row | Structure (SMILES) | Effect at GABA-A receptor (GABA-A receptor) | other results
53 | CCOCN1C2=C(C(=O)Nc3ccccc3F)C(=O)CCN2c2ccc(F)cc21 [RWJ-51204] |  | Effect at GABA receptor (GABA-A receptor; [2]): Partial agonist
54 | O=C1COC(N2CCN=C(c3ccccc3Cl)c3cc(Cl)ccc32)=N1 [Reclazepam] | Agonist | 
55 | COC(=O)CC[C@@H]1N=C(c2ccccn2)c2cc(Br)ccc2-n2c(C)cnc21 [Remimazolam] | Agonist | 
56 | CCn1nc(C)c2c1C(c1ccccc1)=NCC(=O)N2 [Ripazepam] | Agonist | 
57 | CCCN(CCC)Cc1nc(-c2ncn3c2CN(C)C(=O)c2cc(F)ccc2-3)no1 [Ro48-6791] | Agonist | 
58 | CC#CCOC(=O)c1c(C)nc2sc3c(c2c1N)CCC(O)C3 (centres unmarked) [SB-205,384] |  | Effect at GABA receptor (GABA-A receptor; Table 2, exemplary SS-PAMs): Agonist α3,5,6 subtype selective
59 | C#Cc1ccc2c(c1)C(c1ccccc1F)=N[C@H](C)c1c(C(=O)OCC)ncn1-2 [SH-053-R-CH3-2′F] | Agonist | 
60 | Cn1c2ccc(F)cc2c2c(C(=O)N3CCCC3)cn(-c3ccccc3)c(=O)c21 [SL-651,498] |  | Effect at GABA receptor (GABA-A receptor; Table 2, exemplary SS-PAMs): Full agonist α2,3 selective
61 | CC(C)(C)C(O)/C=C/c1ccc2c(c1)OCO2 (centres unmarked) [Stiripentol] |  | Dose in humans for anti-anxiety, anti-convulsive, or sedative effects [1]: 50-100 mg/kg/day (max daily dose 4 g)
62 | CN1C(=S)CN=C(c2ccccc2)c2cc(Cl)ccc21 [Sulazepam] | Agonist | 
63 | CCC(=O)N1CCN(C(=O)O[C@H]2C3SCCSC3C(=O)N2c2ccc3ccc(Cl)nc3n2)CC1 (some centres unmarked) [Suproclone] |  | Effect at GABA receptor (GABA-A receptor; [2]): Agonist
64 | CN1CCN(C(=O)OC2C3=C(SCCS3)C(=O)N2c2ccc3ccc(Cl)nc3n2)CC1 (centres unmarked) [Suriclone] |  | Effect at GABA receptor (GABA-A receptor; [2]): Agonist
65 | CC(C)(O)c1ccn2c(-c3ccc(F)c(-c4ccc(F)cc4C#N)c3)cnc2c1F [TP-003] |  | Effect at GABA receptor (GABA-A receptor; Table 2, exemplary SS-PAMs): Partial agonist α2,3,5 subtype selective binding and α3 selective efficacy
66 | Cn1ncnc1COc1nn2c(-c3ccccc3)nnc2cc1C1CCC1 [TP-13] |  | Effect at GABA receptor (GABA-A receptor; Table 2, exemplary SS-PAMs): Partial agonist at α2,3 subunits
67 | CCn1ncnc1COc1nn2c(-c3ccccc3F)nnc2cc1C(C)(C)C [TPA-023, 7-(1,1-dimethylethyl)-6-(2-ethyl-2H-1,2,4-triazol-3-ylmethoxy)-3-(2-fluorophenyl)-1,2,4-triazolo[4,3-b]pyridazine] |  | Effect at GABA receptor (GABA-A receptor; Table 2, exemplary SS-PAMs): Partial agonist at α2,3 subunits Antagonist at α1,5 subunits
68 | COc1nc2nc(-c3noc(C)n3)cn2c2c1CCCC2 [Taniplon] |  | Effect at GABA receptor (GABA-A receptor; [2]): Agonist
69 | CN1C(=O)CC(=O)N(c2ccccc2)c2cc(C(F)(F)F)ccc21 [Triflubazam] | Agonist | 
70 | Cc1cc2c(N3CCCC3)nc(N3CCCC3)nc2n1C [U-89843A] |  | Effect at GABA receptor (GABA-A receptor; Table 2, exemplary SS-PAMs): Agonist at α1,3,6 subunits
71 | Clc1ccc2c(c1)C1=NCCN1c1c(-c3noc(C4CC4)n3)ncn1-2 [U-90042] |  | Effect at GABA receptor (GABA-A receptor; Table 2, exemplary SS-PAMs): Agonist at α1,3,6 subunits
72 | C=CCONC1=Nc2ccc(Cl)cc2C(c2ccccc2Cl)=NC1 [Uldazepam] | Agonist | 
73 | O=c1cc2c(nn1-c1ccc(Cl)cc1)-c1ccccc1[S+]([O-])CC2 (centres unmarked) [Y-23684] |  | Effect at GABA receptor (GABA-A receptor; [2]): Partial agonist Non- selective
74 | CCOC(=O)c1ncc2[nH]c3ccc(OCc4ccccc4)cc3c2c1COC [ZK-93423] |  | Effect at GABA receptor (GABA-A receptor; [2]): Agonist
75 | Clc1ccc2c(n1)C(c1ccccc1Cl)=NCc1nncn1-2 [Zapizolam] | Agonist | 
76 | Cc1nn(C)c2c1C(c1ccccc1F)=NCC(=O)N2C [Zolazepam] | Agonist | 
77 | Cc1nn(C)c2c1N(c1ccccc1)C(=O)CC(=O)N2C [Zomebazam] | Agonist | 
